Laboratory results as given in article PMC12029836, “Phytotoxicity, Cytotoxicity, and Antimicrobial Activity of Triethanolammonium Amino Acids Salts” (Molecules, 2025).
Where “and” joins values, the source holds several entries; their conditions need not be identical. Equal entries are not always repeated. Where two headings read alike, the source gives them in different places.

How the values were obtained:
[1] = tested on: Lepidium sativum L. seeds; settings: 24 h incubation, mean(±SD), n = 3
[2] = tested on: Lepidium sativum L. roots; settings: 24 h incubation, mean(±SD), n = 3
L929 fibroblasts = assay: Mammalian cell cytotoxicity screening, resazurin viability; assay type: cell-based, mouse
[3] = 0.01% (w/w) compound in the medium
[4] = 0.03% (w/w) compound in the medium
[5] = 0.05% (w/w) compound in the medium
[6] = 0.10% (w/w) compound in the medium
[7] = 0.30% (w/w) compound in the medium
[8] = 0.50% (w/w) compound in the medium
[9] = 1.00% (w/w) compound in the medium
[10] = 2.00% (w/w) compound in the medium
[11] = 3.00% (w/w) compound in the medium
[12] = 4.00% (w/w) compound in the medium
[13] = 5.00% (w/w) compound in the medium

SMILES	Inhibition of the Lepidium sativum seeds germination (ISG, %) [1, 3]	Inhibition of the Lepidium sativum seeds germination (ISG, %) [1, 4]	Inhibition of the Lepidium sativum seeds germination (ISG, %) [1, 5]	Inhibition of the Lepidium sativum seeds germination (ISG, %) [1, 6]	Inhibition of the Lepidium sativum seeds germination (ISG, %) [1, 7]	Inhibition of the Lepidium sativum seeds germination (ISG, %) [1, 8]	Inhibition of the Lepidium sativum seeds germination (ISG, %) [1, 9]	Inhibition of the Lepidium sativum seeds germination (ISG, %) [1, 10]	Inhibition of the Lepidium sativum seeds germination (ISG, %) [1, 12]	Inhibition of the Lepidium sativum seeds germination (ISG, %) [1, 13]	Inhibition of the root growth in pregerminated Lepidium sativum seeds (IRG, %) [2, 3]	Inhibition of the root growth in pregerminated Lepidium sativum seeds (IRG, %) [2, 4]	Inhibition of the root growth in pregerminated Lepidium sativum seeds (IRG, %) [2, 5]	Inhibition of the root growth in pregerminated Lepidium sativum seeds (IRG, %) [2, 6]	Inhibition of the root growth in pregerminated Lepidium sativum seeds (IRG, %) [2, 7]	Inhibition of the root growth in pregerminated Lepidium sativum seeds (IRG, %) [2, 8]	Inhibition of the root growth in pregerminated Lepidium sativum seeds (IRG, %) [2, 9]	Inhibition of the root growth in pregerminated Lepidium sativum seeds (IRG, %) [2, 10]	Inhibition of the root growth in pregerminated Lepidium sativum seeds (IRG, %) [2, 11]	Inhibition of the root growth in pregerminated Lepidium sativum seeds (IRG, %) [2, 12]	also measured
CCC(C)C(N)C(=O)O.OCCN(CCO)CCO [[TEA][Ile]]	0.0(±1.9) %	0.0(±1.4) %	0.0(±0.8) %	0.0(±0.5) %	3.6(±2.2) %	5.4(±0.5) %	17.9(±2.6) %	23.2(±0.9) %	39.3(±2.1) %	80.4(±1.3) %	2.9(±1.7) %	27.8(±1.4) %	31.4(±1.9) %	35.1(±1.5) %	34.6(±1.6) %	36.9(±1.6) %	56.9(±1.2) %	70.9(±1.0) %	72.5(±0.7) %	77.5(±0.6) %	Inhibition of the Lepidium sativum seeds germination (ISG, %) [1, 11]: 26.8(±0,9) %; Inhibition of the root growth in pregerminated Lepidium sativum seeds (IRG, %) [2, 13]: 80.4(±0.3) %
CC(C)C[C@H](N)C(=O)O.OCCN(CCO)CCO [[TEA][Leu]]	0.0(±1.9) %	0.0(±1.9) %	5.7(±0.5) %	6.6(±0.9) %	7.5(±2.1) %	11.3(±0.8) %	15.1(±1.6) %	32.1(±0.1) %	84.9(±2.5) %	100(±0.1) %	0.0(±0.0) %	8.9(±2.5) %	10.5(±2.1) %	20.3(±1.7) %	30.0(±1.9) %	39.9(±1.5) %	53.0(±1.0) %	67.9(±0.9) %	71.6(±0.8) %	88.7(±0.7) %	ED20 (L929 fibroblasts; 24h exposure): 0.23±0.02%; ED50 (L929 fibroblasts; 24h exposure): 0.51±0.22%; ED80 (L929 fibroblasts; 24h exposure): 0.93±0.07%; ED20 (L929 fibroblasts; 48h exposure): 0.21±0.01%; ED50 (L929 fibroblasts; 48h exposure): 0.51±0.01%; ED80 (L929 fibroblasts; 48h exposure): 0.82±0.03%; Inhibition of the Lepidium sativum seeds germination (ISG, %) [1, 11]: 58.5%; Inhibition of the root growth in pregerminated Lepidium sativum seeds (IRG, %) [2, 13]: 94.7(±0.5) %
N[C@@H](Cc1ccccc1)C(=O)O.OCCN(CCO)CCO [[TEA][Phe]]	0.0(±0.0) %	0.0(±0.0) %	0.9(±0.8) %	1.8(±0.9) %	3.5(±1.7) %	5.3(±0.8) %	8.8(±1.3) %	10.5(±0.8) %	22.8(±2.4) %	86.0(±2.1) %	23.6%	24.4(±2.0) %	28.5(±2.0) %	44.2(±1.6) %	48.1(±1.7) %	53.1(±1.3) %	60.2(±1.4) %	69.6(±1.1) %	78.3(±0.9) %	83.5(±0.9) %	ED20 (L929 fibroblasts; 24h exposure): 0.37±0.04%; ED50 (L929 fibroblasts; 24h exposure): 0.72±0.07% and 0.72%; ED80 (L929 fibroblasts; 24h exposure): 1.20±0.19%; ED20 (L929 fibroblasts; 48h exposure): 0.38±0.04%; ED50 (L929 fibroblasts; 48h exposure): 0.63±0.04%; ED80 (L929 fibroblasts; 48h exposure): 0.91±0.14%; Inhibition of the root growth in pregerminated Lepidium sativum seeds (IRG, %) [2, 13]: 92.1(±0.6) %
N[C@@H](Cc1c[nH]c2ccccc12)C(=O)O.OCCN(CCO)CCO [[TEA][Trp]]	0.0(±0.0) %	1.9(±0.5) %	3.7(±1.3) %	12.0(±0.8) %	16.7(±2.2) %	18.5(±1.8) %	28.7(±1.3) %	38.9(±1.6) %	61.1(±1.4) %	83.3(±0.8) %	38.1%	41.1(±1.2) %	48.8(±1.0) %	51.9(±1.0) %	53.3(±0.4) %	54.7(±1.0) %	57.6(±0.8) %	69.0(±0.8) %	76.0(±0.7) %	88.8(±0.6) %	Inhibition of the Lepidium sativum seeds germination (ISG, %) [1, 11]: 53.7%; Inhibition of the root growth in pregerminated Lepidium sativum seeds (IRG, %) [2, 13]: 95.0(±0.4) %
CC(C)[C@H](N)C(=O)O.OCCN(CCO)CCO [[TEA][Val]]	0.0(±0.9) %	0.0(±1.7) %	0.0(±1.2) %	0.0(±1.2) %	1.9(±0.5) %	3.8(±1.7) %	5.7(±0.5) %	17.0(±0.5) %	34.0(±1.3) %	52.8(±1.3) %	11.6%	11.9(±3.3) %	21.7(±2.8) %	32.7(±2.9) %	49.1(±2.5) %	54.8(±2.6) %	62.9(±2.4) %	73.3(±1.5) %	77.6(±1.7) %	82.0(±1.0) %	Inhibition of the Lepidium sativum seeds germination (ISG, %) [1, 11]: 28.3(±0.5) %; Inhibition of the root growth in pregerminated Lepidium sativum seeds (IRG, %) [2, 13]: 89.9(±0.74) %
